This note sets out measurements from article PMC3026800, “Mechanism of Inhibition of Enveloped Virus Membrane Fusion by the Antiviral Drug Arbidol” (PLoS ONE, 2011).

The test system of this test is HApp (pseudoparticles harbouring the influenza hemagglutinin). The format is cell-based. The settings on record: 11.3 µM arbidol.

In the case of `CCOC(=O)c1c(CSc2ccccc2)n(C)c2cc(Br)c(O)c(CN(C)C)c12.Cl` [Arb, 1H-indole-3-carboxylic acid, 6-bromo-4-[(dimethylamino)-methyl]-5-hydroxy-1-methyl-2-[(phenylthio)methyl]-, ethyl ester, monohydrochloride], the “Sensitivity of pseudoparticle entry to arbidol” value is “sensitive”.
